pIC50: −log10 of the molar value.
Experiments:
[1] = molecular target: Rho-associated protein kinase 2 (Homo sapiens, UniProt O75116)
[2] = molecular target: Rho-associated protein kinase 1 (Homo sapiens, UniProt Q13464)
Sequence of Rho-associated protein kinase 1 (Q13464 whole entry): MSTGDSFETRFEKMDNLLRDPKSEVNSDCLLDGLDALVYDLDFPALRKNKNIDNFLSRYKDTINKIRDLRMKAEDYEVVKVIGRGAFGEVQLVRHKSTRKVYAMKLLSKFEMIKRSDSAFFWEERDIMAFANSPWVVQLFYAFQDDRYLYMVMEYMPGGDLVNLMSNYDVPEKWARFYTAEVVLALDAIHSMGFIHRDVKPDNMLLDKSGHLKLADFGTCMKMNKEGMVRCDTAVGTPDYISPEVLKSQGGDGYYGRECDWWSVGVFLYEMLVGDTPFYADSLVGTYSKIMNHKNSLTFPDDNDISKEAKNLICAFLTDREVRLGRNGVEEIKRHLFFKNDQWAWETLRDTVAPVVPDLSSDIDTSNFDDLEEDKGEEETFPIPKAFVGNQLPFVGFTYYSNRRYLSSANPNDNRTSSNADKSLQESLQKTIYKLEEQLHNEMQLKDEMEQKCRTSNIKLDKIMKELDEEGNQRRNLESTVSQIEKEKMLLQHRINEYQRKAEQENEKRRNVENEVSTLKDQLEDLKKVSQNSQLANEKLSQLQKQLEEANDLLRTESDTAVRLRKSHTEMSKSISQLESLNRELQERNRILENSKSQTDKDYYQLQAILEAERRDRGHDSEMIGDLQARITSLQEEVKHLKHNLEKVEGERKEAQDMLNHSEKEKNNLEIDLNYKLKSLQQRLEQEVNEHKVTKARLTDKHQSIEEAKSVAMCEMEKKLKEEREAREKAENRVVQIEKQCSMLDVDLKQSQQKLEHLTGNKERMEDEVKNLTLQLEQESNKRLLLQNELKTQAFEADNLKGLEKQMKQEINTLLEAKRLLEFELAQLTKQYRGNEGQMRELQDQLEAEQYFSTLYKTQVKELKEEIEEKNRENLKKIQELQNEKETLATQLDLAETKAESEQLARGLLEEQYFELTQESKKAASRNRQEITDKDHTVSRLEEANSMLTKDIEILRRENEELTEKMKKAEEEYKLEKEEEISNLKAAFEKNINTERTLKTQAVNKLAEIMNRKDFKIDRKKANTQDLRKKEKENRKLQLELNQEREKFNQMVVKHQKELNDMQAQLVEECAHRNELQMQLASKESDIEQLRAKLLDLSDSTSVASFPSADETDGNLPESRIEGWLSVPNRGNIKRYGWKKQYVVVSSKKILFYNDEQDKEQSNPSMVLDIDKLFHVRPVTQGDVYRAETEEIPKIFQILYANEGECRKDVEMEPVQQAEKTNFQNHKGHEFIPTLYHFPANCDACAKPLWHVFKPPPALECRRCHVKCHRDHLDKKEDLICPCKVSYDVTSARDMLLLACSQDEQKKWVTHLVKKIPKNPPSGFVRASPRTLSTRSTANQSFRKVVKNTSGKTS

Sequence of Rho-associated protein kinase 2 (O75116 whole entry): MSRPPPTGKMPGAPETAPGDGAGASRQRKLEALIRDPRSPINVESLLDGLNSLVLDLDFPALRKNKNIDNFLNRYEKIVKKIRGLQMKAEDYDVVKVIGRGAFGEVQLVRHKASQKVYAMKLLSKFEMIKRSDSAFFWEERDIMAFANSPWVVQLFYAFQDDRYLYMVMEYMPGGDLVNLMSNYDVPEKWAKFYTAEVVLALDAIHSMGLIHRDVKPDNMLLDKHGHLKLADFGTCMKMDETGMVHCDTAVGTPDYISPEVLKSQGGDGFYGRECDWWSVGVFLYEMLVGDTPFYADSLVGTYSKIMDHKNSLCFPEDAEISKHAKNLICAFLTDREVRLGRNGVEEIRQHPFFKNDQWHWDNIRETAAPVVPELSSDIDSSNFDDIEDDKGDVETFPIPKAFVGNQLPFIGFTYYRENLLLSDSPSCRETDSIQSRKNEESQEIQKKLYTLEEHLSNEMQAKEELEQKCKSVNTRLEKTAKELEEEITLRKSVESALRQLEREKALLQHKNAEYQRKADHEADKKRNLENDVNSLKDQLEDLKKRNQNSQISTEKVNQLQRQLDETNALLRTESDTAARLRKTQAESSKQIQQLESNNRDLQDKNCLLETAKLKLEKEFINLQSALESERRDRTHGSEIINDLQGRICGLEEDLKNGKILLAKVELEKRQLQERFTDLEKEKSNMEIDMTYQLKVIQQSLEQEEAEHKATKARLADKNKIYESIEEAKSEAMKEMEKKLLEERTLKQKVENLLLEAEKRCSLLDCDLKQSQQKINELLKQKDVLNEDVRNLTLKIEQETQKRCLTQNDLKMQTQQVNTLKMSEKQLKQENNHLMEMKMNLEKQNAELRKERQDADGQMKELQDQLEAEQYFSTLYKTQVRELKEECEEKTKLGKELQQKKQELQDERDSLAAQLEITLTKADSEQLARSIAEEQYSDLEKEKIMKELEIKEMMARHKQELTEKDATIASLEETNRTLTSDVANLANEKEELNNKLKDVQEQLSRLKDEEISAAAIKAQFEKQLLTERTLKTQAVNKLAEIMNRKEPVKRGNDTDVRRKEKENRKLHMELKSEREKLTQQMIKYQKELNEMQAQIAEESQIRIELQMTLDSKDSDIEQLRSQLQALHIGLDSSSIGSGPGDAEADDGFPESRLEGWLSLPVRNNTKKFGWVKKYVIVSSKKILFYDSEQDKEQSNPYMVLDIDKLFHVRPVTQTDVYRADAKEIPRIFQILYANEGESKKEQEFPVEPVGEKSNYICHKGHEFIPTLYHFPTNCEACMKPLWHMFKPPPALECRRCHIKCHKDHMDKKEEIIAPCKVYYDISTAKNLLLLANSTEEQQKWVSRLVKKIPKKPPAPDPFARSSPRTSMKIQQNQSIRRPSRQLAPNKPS

Structure (SMILES)	pIC50 [1]	pIC50 [2]
C[C@H]1CNCCCN1S(=O)(=O)c1cccc2cncc(F)c12	7.70	
N[C@@H](COc1ccc2c(c1)OCc1cnccc1-2)Cc1ccccc1		7.15
N[C@H](Cc1ccccc1)C(=O)Nc1ccc2c(c1)OCc1cnccc1-2		7.72
N[C@@H](C(=O)Nc1ccc2c(c1)OCc1cnccc1-2)c1ccccc1		7.80
COc1cccc(C(C)NC(=O)c2ccc3c(c2)OCc2cnccc2-3)n1 (configuration not stated)		7.57
C[C@@H](NC(=O)c1ccc2c(c1)OCc1cnccc1-2)c1ccccc1		7.74
O=C(Cc1ccccc1)Nc1ccc2c(c1)OCc1cnccc1-2		6.85
COc1cccc([C@@H](C)NC(=O)c2ccc3c(c2)COc2cnc(N)cc2-3)c1		6.77
COc1cccc([C@@H](C)NC(=O)c2ccc3c(c2)COc2cncnc2-3)c1		7.42
CCNC(=O)c1cc(CNC(=O)c2ccc3c(c2)C(CC)Oc2cnccc2-3)ccc1F (racemic)		7.70

More lines, now with the values ahead:

pIC50 [1]	pIC50 [2]	Structure (SMILES)
	8.39	COc1cccc([C@@H](C)NC(=O)c2ccc3c(c2)C(C2CC2)Oc2cnccc2-3)c1 (some centres not stated)
	9.31	COc1cccc([C@@H](C)NC(=O)c2ccc3c(c2)C(C)Oc2cnccc2-3)c1 (some centres not stated)
	9.20	CCC1Oc2cnccc2-c2ccc(C(=O)N[C@H](C)c3cccc(OC)c3)cc21 (mixture of isomers)
	8.92	CCN1CCC[C@H]1CNC(=O)c1cccc(CNC(=O)c2ccc3c(c2)C(C)Oc2cnccc2-3)c1 (mixture of isomers)
	7.82	COc1cccc([C@@H](C)NC(=O)c2ccc3c(c2)OC(C)c2cnccc2-3)c1 (mixture of isomers)
	8.70	CCC1Oc2cnccc2-c2ccc(C(=O)N[C@H](C)c3cccc(OC)c3)cc21 (stereo in doubt; 18)
	9.17	CCC1Oc2cnccc2-c2ccc(C(=O)N[C@H](C)c3cccc(OC)c3)cc21 (stereo in doubt; 19)
